Laboratory results as given in patent publication US9011925B2, “Method for preparing polysaccharide nanocomposite particles and uses of the same” (China Medical University, priority 2011, dated 2015).
Values after ≈ are worked out from the molar mass of the structure shown.

How the values were obtained:
[1] = Surface potential analysis (Zetasizer, DLS); assay type: physicochemical; conditions: diluted 50-folds with water, sonicated 1 hour
Procedure: [Surface Potential Analysis]
The samples were diluted 50-folds with water, and sonicated for 1 hour by using an ultrasonic vibration machine. Then, the samples dissolved in water were analyzed by using a Zetasizer machine (Malvern ZS90) based on the principle of dynamic light scattering (DLS) to observe the surface potential and particle size distribution of the particles.

[2] = system: Colo 205 human rectum tumor cells; assay: Cytotoxicity assay (MTT); assay type: cell-based; conditions: colo 205 cells, 72th hour, read-out: 1050 (50% concentration of inhibition)
Procedure: Colo 205 human rectum tumor cells were inoculated in a 24-well culture dish (1×10^4 cells/well), and incubated in an incubator at 37° C. under 5% CO2 for 24 hours. Then, the active component (KCY-Tai 1 and KCY-Tai 2) or polysaccharide nanocomposite particles (KCY-Tai 1-CNPs and KCY-Tai 2-CNPs 2) with different concentrations (0.39 to 12.5 μg/ml) was respectively added into the culture dish, and the cells were incubated for 24, 72, and 120 hours. The cells were washed with 1×PBS twice. MTT (3-(4,5-dimethyl thiazole-2-yl)-2,5-diphenyl tetrazolium bromide) (0.5 mg/ml) was added to the culture dish (200 μl/well), and the dish was placed in an incubator at 37° C. under 5% CO2. After incubating for 4 hours, MTT was sucked out and removed, and […] dimethyl sulfoxide (DMSO) was added into each well. After incubating on the shaker for 30 minutes, […] of the sample was sucked out from each well and transferred into a 96-well culture dish. The absorbance of the sample was determined under the wavelength of 570 nm by an enzyme-linked immunosorbent assay (ELISA) reader.

[3] = system: lung cancer cells, breast cancer cells, and rectal cancer cells; conditions: cited from earlier work
HepG2/A2 = conditions: cited from earlier work
p53 protein = conditions: HepG2/A2 cells; cited from earlier work

Row | Surface potential (mV) [1] [mV] | SMILES | IC50 [2] [µg/mL] | cytotoxicity effects on lung, breast and rectal cancer cells [3] | cell cycle effect (HepG2/A2; accumulation of cyclin B1/cdc2 complex) | apoptosis markers (micronucleation, DNA fragmentation, caspase-3) (HepG2/A2) | effect on mitotic spindle (immunofluorescence staining) (HepG2/A2) | p53 protein activation (p53 protein)
1 | −22.5 | O=C1OCC(=C/c2ccc3c(c2)OCO3)/C1=C\c1ccc2c(c1)OCO2 [KCY-Tai 1] | 3 (≈ 8.56 µM) | significant cytotoxicity effects | arrested at G2/M phase | activation of caspase-3 | interrupt the formation of mitotic spindle | activation of p53 protein
2 | −11.8 | COc1cc(/C=C2/C(=O)OC/C2=C/c2ccc3c(c2)OCO3)cc(OC)c1OC [KCY-Tai 2] | 0.7 (≈ 1.77 µM) | significant cytotoxicity effects | – | – | – | –
